The values below come from patent publication US10696703B2, “Method for producing eushearlilides” (TOKYO UNIVERSITY OF SCIENCE FOUNDATION, priority 2014, dated 2020).

Common to all, as to type: cell-based
In experiment [1] the test system is Staphylococcus aureus NBRC 12732. Description: MIC measurement by CLSI disk method, Staphylococcus aureus NBRC 12732. The settings on record: for Inhibition zone: at the MIC amount per disk, mean of longest and shortest lengths of area without growth; for MIC concentration: disk method, Mueller-Hinton II agar, 36 ± 1° C., 18 to 24 hours. The procedure:
(§1) The followings were used as test microorganisms: Staphylococcus aureus NBRC 12732, Aspergillus niger NBRC 105649, and Trichophyton mentagrophytes NBRC 5466. Measurements were performed in accordance with the disk method as defined by CLSI (Clinical and Laboratory Standards Institute). A cryopreserved strain was applied onto a test-bacterium preculture medium, and precultured under predetermined conditions. A grown colony was suspended in a test-bacterium culture medium, and cultured under predetermined conditions, and then added to a test-bacterium preparation liquid to adjust the number of cells to about 107-8 CFU/mL. Further, the prepared test-bacterium liquid was subjected to 10-times serial dilution, and cultured under predetermined conditions, and the number of cells was then counted. [table] Each compound was dissolved in methanol to 1,000 μg/mL, which was used as a sample stock solution. Otsuka distilled water in an amount of 0.75 mL was added to 0.75 mL of the sample stock solution to give a volume of 500 μg/mL. This two-fold dilution was repeated in a similar way. A total of 10 test-substance dilution series was prepared so that the concentrations of the test substance were each 1000, 500, 250, 125, 63, 31, 16, 8, 4, and 2 μg/mL. A test-bacterium liquid was uniformly spread over a corresponding sensitivity measurement agar medium in a square petri dish using a swab, and disks were placed on the medium. At this time, the distance between disks was set to 24 mm or more. A test-substance diluted liquid in an amount of 50 μL was dropped on a disk. The amount of a test substance per disk was 50, 25, 12.5, 6.3, 3.1, 1.6, 0.8, 0.4, 0.2, or 0.1 μg. Each sensitivity measurement agar medium was cultured under conditions shown in Table 1 above, and the diameter of an inhibition zone where bacterial growth was not observed was measured in mm with calipers. As control, methanol was dropped on a disk instead of a test substance.

The subject of experiment [2] is Aspergillus niger NBRC 105649. Description: MIC measurement by CLSI disk method, Aspergillus niger NBRC 105649. Conditions: for Inhibition zone: at the MIC amount per disk, mean of longest and shortest lengths of area without growth; for MIC concentration: disk method, Glucose Peptone agar, 27 ± 1° C., one week. On the procedure: as §1
The subject of experiment [3] is Trichophyton mentagrophytes NBRC 5466. Description: MIC measurement by CLSI disk method, Trichophyton mentagrophytes NBRC 5466. The settings on record: for Inhibition zone: at the MIC amount per disk of the same line, mean of longest and shortest lengths of area without growth; for MIC concentration: disk method, Glucose Peptone agar, 27 ± 1° C., one week. On the procedure: as §1

For experiment [4], the system named is Enterococcus faecalis ATCC29212. Description: MIC measurement by CLSI disk method, Enterococcus faecalis ATCC 29212. The settings on record: for Inhibition zone: at the MIC amount per disk of the same line, mean of longest and shortest lengths of area without growth; for MIC: disk method, bacterial liquid 9.6 × 10^7 CFU/mL, Mueller-Hinton II agar, 35 ± 1° C., 24 h. The procedure:
(§2) The followings were used as test microorganisms: Staphylococcus aureus (MRSA) IID 1677, Staphylococcus aureus (MRSA) ATCC 43300, Enterococcus faecalis (VRE) ATCC 51575, and Enterococcus faecalis ATCC 29212.
(§3) Measurements were performed in accordance with the disk method as defined by CLSI (Clinical and Laboratory Standards Institute).
(§4) A cryopreserved strain was applied onto a test-bacterium culture medium, and precultured under predetermined conditions (Table 3). A grown colony was again precultured (Table 3), and then suspended in a test-bacterium preparation liquid, and filtered through absorbent cotton. The number of cells was then adjusted to about 107-8 CFU/mL. This was used for the tests. Further, the prepared test-bacterium liquid was subjected to 10-times serial dilution, and cultured under predetermined conditions (Table 4), and the number of cells was then counted.
(§5) Each of the compounds according to the present invention was dissolved in methanol (Wako Pure Chemical Industries, Ltd., Special grade, Content: 99.8%) to 1000 µg/mL. This was used as a sample stock solution. Otsuka distilled water in an amount of 0.8 mL was added to 0.8 mL of the sample stock solution such that the concentration of each of the compounds according to the present invention was 500 μg/mL. This two-fold dilution was repeated in a similar way. A total of 10 test-substance dilution series were prepared so that the concentrations of the test substance were each 1000, 500, 250, 125, 63, 31, 16, 8, 4, and 2 μg/mL.
(§6) A test-bacterium liquid was uniformly spread over a sensitivity measurement agar medium in a square petri dish (230×80×14.5 mm, Eiken Chemical Co., Ltd.) using a swab, and φ8-mm thick disks (for antibiotics assay, Advantec Co., Ltd.) were placed on the medium. At this time, the distance between disks was set to 24 mm or more. A test-substance diluted liquid in an amount of 50 μL was dropped on a disk. The amount of a test substance per disk was 50, 25, 12.5, 6.3, 3.1, 1.6, 0.8, 0.4, 0.2, or 0.1 μg. A sensitivity measurement agar medium was cultured under predetermined conditions (Table 4), and the width of an inhibition zone where bacterial growth was not observed was measured in mm with calipers. As control, methanol was dropped on a disk instead of a test substance.

The test system of experiment [5] is Staphylococcus aureus (MRSA) ATCC43300. Description: MIC measurement by CLSI disk method, MRSA ATCC 43300. Conditions: for Inhibition zone: at the MIC amount per disk, mean of longest and shortest lengths of area without growth; for MIC: disk method, bacterial liquid 1.0 × 10^8 CFU/mL, Mueller-Hinton II agar, 35 ± 1° C., 24 h. The procedure:
as §2, §3, §4, §5, §6

For experiment [6], the system named is Staphylococcus aureus (MRSA) IID1677. Description: MIC measurement by CLSI disk method, MRSA IID 1677. Conditions: for Inhibition zone: at the MIC amount per disk, mean of longest and shortest lengths of area without growth; for MIC: disk method, bacterial liquid 7.3 × 10^7 CFU/mL, Mueller-Hinton II agar, 35 ± 1° C., 24 h. On the procedure:
as §2, §3, §4, §5, §6

The test system of experiment [7] is Enterococcus faecalis (VRE) ATCC51575. Description: MIC measurement by CLSI disk method, VRE ATCC 51575. Conditions: for Inhibition zone: at the MIC amount per disk, mean of longest and shortest lengths of area without growth; for MIC: disk method, bacterial liquid 1.9 × 10^8 CFU/mL, Mueller-Hinton II agar, 35 ± 1° C., 24 h. On the procedure: as §2, §3, §4, §5, §6

As for `C[C@@H]1C/C=C/CC/C=C/CCCCCCCCCCCC[C@@H](OP(=O)([O-])OCC[N+](C)(C)C)CC(=O)O1` [Compound A], the figures for the Inhibition zone in experiment [1], in experiment [2] and in experiment [3] were 2 mm, 3.7 mm and 2.5 mm, respectively. Further, the MIC concentration in experiment [1] stood at 50 μg/disk; in experiment [2], 50 μg/disk; in experiment [3] it was 25 μg/disk.
Turning to `C[C@@H]1C/C=C/CC/C=C\CCCCCCCCCCCC[C@@H](OP(=O)([O-])OCC[N+](C)(C)C)CC(=O)O1` [Compound B], the values for the Inhibition zone in experiment [1], in experiment [2] and in experiment [3] were 2.2 mm, 3.7 mm and 3.9 mm, respectively. Besides, the MIC concentration in experiment [1] came to 50 μg/disk; in experiment [2] it was 50 μg/disk; in experiment [3], 12.5 μg/disk.
For the compound `C[C@@H]1C/C=C/CC/C=C\CCCCCCCCCCCC[C@H](OP(=O)([O-])OCC[N+](C)(C)C)CC(=O)O1` [Compound C], the figures for the Inhibition zone in experiment [1], in experiment [2] and in experiment [3] were 1.5 mm, 1 mm and 5.1 mm, respectively. The MIC concentration worked out at 50 μg/disk in experiment [1], 50 μg/disk in experiment [2] and 12.5 μg/disk in experiment [3].
In the case of `C[C@H]1C/C=C/CC/C=C/CCCCCCCCCCCC[C@H](OP(=O)([O-])OCC[N+](C)(C)C)CC(=O)O1` [Compound D, (3S,16E,20E,23S)-(+)-Eushearilide], the Inhibition zone was determined as 2.2 mm in experiment [4], 3.0 mm in experiment [5], 1.4 mm in experiment [6] and 4.7 mm in experiment [7]. The MIC in experiment [4] worked out at 25 μg/disk; in experiment [5] it was 50 μg/disk; in experiment [6] it was 50 μg/disk; in experiment [7] it was 50 μg/disk.
As for `C[C@@H]1C/C=C/CC/C=C/CCCCCCCCCCCC[C@H](OP(=O)([O-])OCC[N+](C)(C)C)CC(=O)O1` [Compound E, (3S,16E,20E,23R)-(+)-Eushearilide], the Inhibition zone came out at 0.0 mm in experiment [4], 3.3 mm in experiment [5], 2.2 mm in experiment [6] and 6.9 mm in experiment [7]. Moreover, the MIC in experiment [4] is on record as above 50 μg/disk; in experiment [5] it was 50 μg/disk; in experiment [6] it was 50 μg/disk; in experiment [7], 50 μg/disk.
On to `C[C@H]1C/C=C/CC/C=C/CCCCCCCCCCCC[C@@H](OP(=O)([O-])OCC[N+](C)(C)C)CC(=O)O1` [Compound F, (3R,16E,20E,23S)-(−)-Eushearilide], for which the Inhibition zone in experiment [4] came to 7.7 mm; in experiment [5], 2.4 mm; in experiment [6], 3.1 mm; in experiment [7], 5.8 mm. The MIC in experiment [4], in experiment [5], in experiment [6] and in experiment [7] was 50 μg/disk in each case.
Take `C[C@H]1C/C=C/CC/C=C\CCCCCCCCCCCC[C@H](OP(=O)([O-])OCC[N+](C)(C)C)CC(=O)O1` [Compound G, (3S,16Z,20E,23S)-(+)-Eushearilide]: the Inhibition zone is listed as 8.4 mm in experiment [4], 0.9 mm in experiment [5], 2.3 mm in experiment [6] and 6.7 mm in experiment [7]. For the same compound, the MIC in experiment [4], in experiment [5], in experiment [6] and in experiment [7] was 50 μg/disk throughout.
On to `C[C@H]1C/C=C/CC/C=C\CCCCCCCCCCCC[C@@H](OP(=O)([O-])OCC[N+](C)(C)C)CC(=O)O1` [Compound H, (3R,16Z,20E,23S)-(−)-Eushearilide], for which the Inhibition zone was 3.3 mm in experiment [4], 2.7 mm in experiment [5], 3.0 mm in experiment [6] and 5.5 mm in experiment [7]. Further, the MIC in experiment [4], in experiment [5], in experiment [6] and in experiment [7] was 50 μg/disk each time.
